# In paper PMC2901852 (Chemical biology & drug design, 2009):
# Where two headings read alike, the source gives them in different places.
# What was measured:
# [1] = target: T1, Human recombinant MMP-2 (Homo sapiens, UniProt P08253); assay: Inhibition of MMP-2, fluorogenic substrate hydrolysis; assay type: biochemical
# T1 sequence (P08253 110-660): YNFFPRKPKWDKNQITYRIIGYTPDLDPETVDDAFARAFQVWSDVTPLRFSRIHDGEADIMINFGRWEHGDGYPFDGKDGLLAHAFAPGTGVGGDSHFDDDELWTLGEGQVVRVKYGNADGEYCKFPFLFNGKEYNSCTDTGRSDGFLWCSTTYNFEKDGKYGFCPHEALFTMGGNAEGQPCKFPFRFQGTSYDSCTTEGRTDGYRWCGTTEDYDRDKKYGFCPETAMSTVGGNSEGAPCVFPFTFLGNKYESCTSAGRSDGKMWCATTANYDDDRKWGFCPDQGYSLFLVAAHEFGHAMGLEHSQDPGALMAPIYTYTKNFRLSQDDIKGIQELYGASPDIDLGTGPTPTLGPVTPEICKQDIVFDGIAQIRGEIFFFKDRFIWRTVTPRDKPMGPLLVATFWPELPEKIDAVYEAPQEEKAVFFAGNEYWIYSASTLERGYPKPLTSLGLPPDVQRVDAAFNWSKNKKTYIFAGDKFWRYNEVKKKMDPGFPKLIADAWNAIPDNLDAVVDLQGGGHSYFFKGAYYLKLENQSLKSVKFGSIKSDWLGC
# [2] = 15-min incubation with rat liver microsomes; cited from earlier work
# [3] = target: T2, Human recombinant active MMP-7 (Homo sapiens, UniProt P09237); assay: Inhibition of MMP-7, fluorogenic substrate hydrolysis; assay type: biochemical
# T2 sequence (P09237 95-267): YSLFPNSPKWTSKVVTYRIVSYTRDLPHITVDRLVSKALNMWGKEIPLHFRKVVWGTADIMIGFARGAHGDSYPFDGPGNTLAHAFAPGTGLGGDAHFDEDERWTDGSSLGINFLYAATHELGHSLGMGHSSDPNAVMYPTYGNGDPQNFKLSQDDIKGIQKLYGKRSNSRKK
# [4] = target: T3, catalytic domain of human recombinant MMP-1 (Homo sapiens, UniProt P03956); assay: Inhibition of MMP-1 catalytic domain, fluorogenic substrate hydrolysis; assay type: biochemical
# T3 sequence (P03956 100-269 limits assumed): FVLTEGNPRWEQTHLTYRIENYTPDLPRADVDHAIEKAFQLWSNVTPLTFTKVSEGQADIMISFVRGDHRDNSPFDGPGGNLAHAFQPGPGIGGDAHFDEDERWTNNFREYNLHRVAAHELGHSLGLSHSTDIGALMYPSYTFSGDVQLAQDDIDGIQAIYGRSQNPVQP
# [5] = target: Human recombinant MMP-9 (Homo sapiens, UniProt P14780); assay: Inhibition of MMP-9, fluorogenic substrate hydrolysis; assay type: biochemical
# Human recombinant MMP-9, sequence (P14780 94-707): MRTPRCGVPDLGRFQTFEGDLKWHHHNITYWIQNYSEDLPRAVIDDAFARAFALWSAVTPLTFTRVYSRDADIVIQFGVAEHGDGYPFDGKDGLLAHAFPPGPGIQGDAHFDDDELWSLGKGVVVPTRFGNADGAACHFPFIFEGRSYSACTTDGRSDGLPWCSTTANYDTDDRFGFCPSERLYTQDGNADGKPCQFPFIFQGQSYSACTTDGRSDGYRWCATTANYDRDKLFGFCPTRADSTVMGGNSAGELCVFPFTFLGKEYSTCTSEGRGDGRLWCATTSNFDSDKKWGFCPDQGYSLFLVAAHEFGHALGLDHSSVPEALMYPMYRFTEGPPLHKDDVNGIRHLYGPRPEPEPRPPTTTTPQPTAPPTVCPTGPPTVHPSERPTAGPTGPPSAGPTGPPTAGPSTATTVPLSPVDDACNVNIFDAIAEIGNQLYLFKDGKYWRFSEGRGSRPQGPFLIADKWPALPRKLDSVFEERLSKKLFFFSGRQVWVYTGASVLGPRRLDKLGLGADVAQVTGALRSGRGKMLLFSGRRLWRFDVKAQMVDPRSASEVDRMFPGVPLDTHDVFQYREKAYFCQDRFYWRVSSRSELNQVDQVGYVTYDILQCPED
# [6] = target: catalytic domain of human recombinant MMP-3 (Homo sapiens, UniProt P08254); assay: Inhibition of MMP-3 catalytic domain, fluorogenic substrate hydrolysis; assay type: biochemical
# catalytic domain of human recombinant MMP-3, sequence (P08254 100-272 limits assumed): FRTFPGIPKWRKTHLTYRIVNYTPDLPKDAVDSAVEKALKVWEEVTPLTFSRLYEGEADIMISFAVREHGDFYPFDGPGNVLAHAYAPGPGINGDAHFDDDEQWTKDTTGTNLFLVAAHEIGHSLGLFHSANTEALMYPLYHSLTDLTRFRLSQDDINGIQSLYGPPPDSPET
# [7] = target: catalytic domain of human recombinant MMP-14 (MT1-MMP) (Homo sapiens, UniProt P50281); assay: Inhibition of MMP-14 catalytic domain, fluorogenic substrate hydrolysis; assay type: biochemical
# [8] = In vitro metabolism, incubation with rat liver microsomes; assay type: in vitro ADME; details: more metabolically stable than SB-3CT
structure (smiles),measurement,setting,value
"C[C@@H]([C@@H]1CS1)S(=O)(=O)c1ccc(Oc2ccccc2)cc1 [Compound 5a, (2S)-2-(1S-(4-Phenoxyphenylsulfonyl)ethyl)thiirane]",Ki,"[1]; MMP-2, linear competitive inhibitors",7200 ± 100 nM
"O=S(=O)(CC1CS1)c1ccc(Oc2ccccc2)cc1 (centres unmarked) [Compound 1, 2-(4-phenoxyphenylsulfonylmethyl)thiirane]",compound remaining,[2],0.5%
CC(C1CS1)S(=O)(=O)c1ccc(Oc2ccc(O)cc2)cc1 (centres unmarked) [Compound 13b],inhibition in words,"[3]; MMP-7, inhibitor concentrations up to 60 μM",Marginal to no inhibition
same,inhibition in words,"[4]; MMP-1, inhibitor concentrations up to 60 μM",Marginal to no inhibition
same,Ki,[1]; MMP-2,220 ± 90 nM
same,Ki,[5]; MMP-9,1900 ± 700 nM
same,inhibition in words,"[6]; MMP-3, inhibitor concentrations up to 60 μM",Marginal to no inhibition
same,Ki,[7]; MMP-14cat,2100 ± 700 nM
"C[C@@H]([C@H]1CS1)S(=O)(=O)c1ccc(Oc2ccccc2)cc1 [Compound 5b, (2R)-2-(1S-(4-Phenoxyphenylsulfonyl)ethyl)thiirane]",Ki,"[3]; read-out: Inhibition (Ki column), MMP-7, up to 60 μM",> 60000 nM
same,Ki,"[4]; read-out: Inhibition (Ki column), MMP-1cat, up to 60 μM",> 60000 nM
same,Ki,[1]; MMP-2,180 ± 30 nM
same,10^–3 kon,"[1]; MMP-2, slow-binding onset rate constant, values printed as 10^–3 kon",3.3 ± 0.1 M/second
same,10^4 koff,"[1]; MMP-2, values printed as 10^4 koff",5.9 ± 1.0 second
same,Ki,[5]; MMP-9,3500 ± 200 nM
same,10^4 koff,"[5]; MMP-9, values printed as 10^4 koff",9.0 ± 0.6 second
same,10^–3 kon,"[5]; MMP-9, values printed as 10^–3 kon",0.26 ± 0.01 M/second
same,inhibition at 60 µM,"[6]; MMP-3cat, 60 μM inhibitor",8% Inhibition at 60 μM
same,Metabolic stability relative to SB-3CT,[8],> 50 fold
same,Ki,[7]; MMP-14cat,740 ± 170 nM
same,10^4 koff,"[7]; MMP-14cat, values printed as 10^4 koff",8.9 ± 2.1 second
same,10^–3 kon,"[7]; MMP-14cat, values printed as 10^–3 kon",1.2 ± 0.1 M/second
"C[C@H]([C@@H]1CS1)S(=O)(=O)c1ccc(Oc2ccccc2)cc1 [Compound 5d, (2S)-2-(1R-(4-Phenoxyphenylsulfonyl)ethyl)thiirane]",Ki,[3],> 60000 nM
same,Ki,[4],> 60000 nM
same,Ki,[1],390 ± 30 nM
same,koff,[1]; read-out: 10^4 koff,0.00081 ± 6e-05 s⁻¹
same,kon,[1]; read-out: 10^–3 kon,2100 ± 100 M⁻¹ s⁻¹
same,Ki,[5],3300 ± 200 nM
same,koff,[5]; read-out: 10^4 koff,0.00072 ± 4e-05 s⁻¹
same,kon,[5]; read-out: 10^–3 kon,220 ± 10 M⁻¹ s⁻¹
same,inhibition at 60 µM,[6]; read-out: Inhibition at 60 μM,9%
same,Metabolic stability relative to SB-3CT,[8],> 50 fold
same,Ki,[7],2100 ± 200 nM
same,koff,[7]; read-out: 10^4 koff,0.00095 ± 9e-05 s⁻¹
same,kon,[7]; read-out: 10^–3 kon,460 ± 10 M⁻¹ s⁻¹
"C[C@H]([C@H]1CS1)S(=O)(=O)c1ccc(Oc2ccccc2)cc1 [Compound 5c, (2R)-2-(1R-(4-Phenoxyphenylsulfonyl)ethyl)thiirane]",Ki,[1],4100 ± 100 nM
"C[C@@H]([C@H]1C[S+]1[O-])S(=O)(=O)c1ccc(Oc2ccccc2)cc1 (stereo partly drawn) [Compound 12, (2R)-2-(1S-(4-Phenoxyphenylsulfonyl)ethyl)thiirane S-oxide]",Ki,[1]; MMP-2,20000 nM
same,inhibition at a fixed 60 μM inhibitor concentration,"[5]; MMP-9, 60 μM",30%
same,inhibition at a fixed 60 μM inhibitor concentration,"[7]; MMP-14, 60 μM",0%
